Results reported in ChEMBL document CHEMBL2086310, “Alkaloids from Pachysandra terminalis inhibit breast cancer invasion and have potential for development as antimetastasis therapeutic agents” (J Nat Prod, 2012).
Activity calls are given as the source filed them. The calls are words filed in the database; no cut-off is given here.

How the values were obtained:
MDA-MB-231 [1] = experiment: Inhibition of epithelial growth factor-induced cell migration of human MDA-MB-231 cells pre-incubated for 24 hrs by cell invasion assay; assay type: functional, cell-based
MDA-MB-231 [2] = experiment: Inhibition of epithelial growth factor-induced cell migration of human MDA-MB-231 cells at 10 uM pre-incubated for 24 hrs by cell invasion assay; assay type: functional, cell-based
[3] = target: Integrin beta-1 (Homo sapiens) (UniProt P05556); experiment: Inhibition of integrin beta1 phosphorylation in human […] cells at 1 to 10 uM incubated for 24 hrs by Western blot; assay type: cell-based
Integrin beta-1 (Homo sapiens), sequence (P05556 whole entry): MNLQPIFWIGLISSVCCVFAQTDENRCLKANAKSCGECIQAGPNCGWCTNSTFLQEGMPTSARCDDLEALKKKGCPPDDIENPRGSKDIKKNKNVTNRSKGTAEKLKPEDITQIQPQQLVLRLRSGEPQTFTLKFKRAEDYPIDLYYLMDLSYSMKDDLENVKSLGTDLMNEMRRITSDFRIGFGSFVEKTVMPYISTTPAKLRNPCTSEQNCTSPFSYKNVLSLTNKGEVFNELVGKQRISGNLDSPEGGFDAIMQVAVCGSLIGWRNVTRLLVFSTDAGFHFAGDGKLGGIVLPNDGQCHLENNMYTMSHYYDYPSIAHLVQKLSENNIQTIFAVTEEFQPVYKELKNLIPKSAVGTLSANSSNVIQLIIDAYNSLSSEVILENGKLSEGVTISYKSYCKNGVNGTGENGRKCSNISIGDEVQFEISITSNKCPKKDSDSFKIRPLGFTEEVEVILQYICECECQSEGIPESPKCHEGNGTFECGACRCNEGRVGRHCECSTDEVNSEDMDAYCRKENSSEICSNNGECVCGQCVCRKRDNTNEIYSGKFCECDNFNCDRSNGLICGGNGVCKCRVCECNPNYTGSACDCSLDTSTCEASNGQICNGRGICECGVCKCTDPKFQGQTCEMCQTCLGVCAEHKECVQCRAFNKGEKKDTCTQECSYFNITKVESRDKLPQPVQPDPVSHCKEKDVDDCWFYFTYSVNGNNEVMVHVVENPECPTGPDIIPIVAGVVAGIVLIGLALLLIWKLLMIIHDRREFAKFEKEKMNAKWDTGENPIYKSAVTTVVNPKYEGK

Compound `C/C=C1/C(=O)C[C@H]2[C@@H]3CC[C@H]4C[C@@H](N(C)C)CC[C@]4(C)[C@H]3CC[C@]12C` has an IC50 (MDA-MB-231 [1]) of 870 nM.
In the case of `CC(=O)[C@H]1CC[C@H]2[C@@H]3CC[C@H]4C[C@H](N(C)C(=O)C=C(C)C)CC[C@]4(C)[C@H]3CC[C@]12C`, the inhibition (MDA-MB-231 [2]) is reported as “inactive”.
In the case of `CC(=O)[C@H]1CC[C@H]2[C@@H]3CC[C@H]4C[C@H](N(C)C(=O)c5ccccc5)CC[C@]4(C)[C@H]3CC[C@]12C`, the inhibition (MDA-MB-231 [2]) is reported as “inactive”.
In the case of `CC(=O)[C@H]1CC[C@H]2[C@@H]3CC[C@H]4C[C@]5(CC[C@]4(C)[C@H]3CC[C@]12C)c1ccccc1C(=O)N5C`, the inhibition (MDA-MB-231 [2]) is reported as “inactive”.
Work on `C[C@@H]([C@H]1CC[C@H]2[C@@H]3CC[C@H]4C[C@@H](NC(=O)c5cccnc5)CC[C@]4(C)[C@H]3CC[C@]12C)N(C)C` [EPIPACHYSAMINE B] yielded an IC50 (MDA-MB-231 [1]) of 350 nM.
Compound `CC(C)=CC(=O)N[C@H]1CC[C@@]2(C)[C@@H](CC[C@@H]3[C@@H]2CC[C@]2(C)[C@@H]([C@H](C)N(C)C)CC[C@@H]32)C1` [EPIPACHYSAMINE E] has an IC50 (MDA-MB-231 [1]) of 410 nM.
For `O=c1cc(N2CCOCC2)oc2c(-c3ccccc3)cccc12` [LY-294002], the IC50 (MDA-MB-231 [1]) was 380 nM.
With `CC(C)[C@@H]1CN([C@H]2CC[C@@]3(C)[C@@H](CC[C@@H]4[C@@H]3CC[C@]3(C)[C@@H]([C@H](C)N(C)C)CC[C@@H]43)C2=O)C1=O` [PACHYSTERMINE A] the IC50 (MDA-MB-231 [1]) was 320 nM.
Work on `CC(C)[C@@H]1CN([C@H]2CC[C@@]3(C)[C@@H](CC[C@@H]4[C@@H]3CC[C@]3(C)[C@@H]([C@H](C)N(C)C)CC[C@@H]43)[C@H]2O)C1=O` [PACHYSTERMINE B] yielded an IC50 (MDA-MB-231 [1]) of 190 nM.
For `C[C@@H]([C@H]1CC[C@H]2[C@@H]3CC[C@H]4[C@H](O)[C@@H](O)CC[C@]4(C)[C@H]3CC[C@]12C)N(C)C` [TERMINALINE], the IC50 (MDA-MB-231 [1]) was 360 nM.
`CC(C)[C@H]1CN([C@H]2CC[C@@]3(C)[C@@H](CC[C@@H]4[C@@H]3CC[C@]3(C)[C@@H]([C@H](C)N(C)C)[C@@H](O)C[C@@H]43)C2=O)C1=O` [TERMINAMINE A] was tested, and the IC50 (MDA-MB-231 [1]) was 180 nM and the inhibition [3] was “Dose-dependent effect”.
`CC(=O)O[C@@H]1C[C@]2(C)[C@@H]([C@H](C)N(C)C)[C@@H](O)C[C@H]2[C@@H]2CC[C@H]3[C@@H](O)[C@@H](N4C[C@H](C(C)C)C4=O)C[C@@H](OC(C)=O)[C@]3(C)[C@H]21` [TERMINAMINE B] gave an IC50 (MDA-MB-231 [1]) of 200 nM.
With `CC(=O)O[C@@H]1C[C@H](N2C[C@H](C(C)C)C2=O)[C@H](O)[C@@H]2CC[C@@H]3[C@H]([C@H](OC(=O)CC(C)C)C[C@]4(C)[C@@H]([C@H](C)N(C)C)[C@@H](O)C[C@@H]34)[C@@]12C` [TERMINAMINE C] the IC50 (MDA-MB-231 [1]) was 80 nM.
Work on `CC(C)=C1CN([C@@H]2CC[C@@]3(C)[C@@H](CC[C@@H]4[C@@H]3CC[C@]3(C)[C@@H]([C@H](C)N(C)C)[C@@H](O)C[C@@H]43)[C@H]2O)C1=O` [TERMINAMINE D] yielded an IC50 (MDA-MB-231 [1]) of 200 nM.
Work on `CC(C)=C1CN([C@@H]2CC[C@@]3(C)[C@@H](CC[C@@H]4[C@@H]3CC[C@]3(C)[C@@H]([C@H](C)N(C)C)CC[C@@H]43)[C@H]2O)C1=O` [TERMINAMINE E] yielded an IC50 (MDA-MB-231 [1]) of 70 nM.
Compound `C/C=C1\C(=O)C[C@H]2[C@@H]3CC[C@H]4C[C@@H](N(C)C)CC[C@]4(C)[C@H]3CC[C@]12C` [Z-salignone] has an IC50 (MDA-MB-231 [1]) of 1740 nM.
